# Laboratory results published in US12162890B2 (Novartis AG, priority 2015, dated 2024).
# Biological target: HEK293 cells with stable expression of the GRIN1 gene and tetracycline-inducible expression of the GRIN2B gene (NMDA receptor, NR2B) (Homo sapiens, UniProt Q13224)
# Test: Fluo-8 Ca2+ flux assay: reversal of Ro 25-6981-mediated suppression of the Ca2+ response to co-agonist (glutamate/glycine); also: test concentration or dose not given here
# Type: cell-based
# Details: reversal of the Ro 25-6981 suppression of the Ca2+ response to co-agonist (glutamate/glycine)
# HEK293 cells with stable expression of the GRIN1 gene and tetracycline-inducible expression of the GRIN2B gene (NMDA receptor, NR2B), sequence (Q13224 27-1484, other chains not shown): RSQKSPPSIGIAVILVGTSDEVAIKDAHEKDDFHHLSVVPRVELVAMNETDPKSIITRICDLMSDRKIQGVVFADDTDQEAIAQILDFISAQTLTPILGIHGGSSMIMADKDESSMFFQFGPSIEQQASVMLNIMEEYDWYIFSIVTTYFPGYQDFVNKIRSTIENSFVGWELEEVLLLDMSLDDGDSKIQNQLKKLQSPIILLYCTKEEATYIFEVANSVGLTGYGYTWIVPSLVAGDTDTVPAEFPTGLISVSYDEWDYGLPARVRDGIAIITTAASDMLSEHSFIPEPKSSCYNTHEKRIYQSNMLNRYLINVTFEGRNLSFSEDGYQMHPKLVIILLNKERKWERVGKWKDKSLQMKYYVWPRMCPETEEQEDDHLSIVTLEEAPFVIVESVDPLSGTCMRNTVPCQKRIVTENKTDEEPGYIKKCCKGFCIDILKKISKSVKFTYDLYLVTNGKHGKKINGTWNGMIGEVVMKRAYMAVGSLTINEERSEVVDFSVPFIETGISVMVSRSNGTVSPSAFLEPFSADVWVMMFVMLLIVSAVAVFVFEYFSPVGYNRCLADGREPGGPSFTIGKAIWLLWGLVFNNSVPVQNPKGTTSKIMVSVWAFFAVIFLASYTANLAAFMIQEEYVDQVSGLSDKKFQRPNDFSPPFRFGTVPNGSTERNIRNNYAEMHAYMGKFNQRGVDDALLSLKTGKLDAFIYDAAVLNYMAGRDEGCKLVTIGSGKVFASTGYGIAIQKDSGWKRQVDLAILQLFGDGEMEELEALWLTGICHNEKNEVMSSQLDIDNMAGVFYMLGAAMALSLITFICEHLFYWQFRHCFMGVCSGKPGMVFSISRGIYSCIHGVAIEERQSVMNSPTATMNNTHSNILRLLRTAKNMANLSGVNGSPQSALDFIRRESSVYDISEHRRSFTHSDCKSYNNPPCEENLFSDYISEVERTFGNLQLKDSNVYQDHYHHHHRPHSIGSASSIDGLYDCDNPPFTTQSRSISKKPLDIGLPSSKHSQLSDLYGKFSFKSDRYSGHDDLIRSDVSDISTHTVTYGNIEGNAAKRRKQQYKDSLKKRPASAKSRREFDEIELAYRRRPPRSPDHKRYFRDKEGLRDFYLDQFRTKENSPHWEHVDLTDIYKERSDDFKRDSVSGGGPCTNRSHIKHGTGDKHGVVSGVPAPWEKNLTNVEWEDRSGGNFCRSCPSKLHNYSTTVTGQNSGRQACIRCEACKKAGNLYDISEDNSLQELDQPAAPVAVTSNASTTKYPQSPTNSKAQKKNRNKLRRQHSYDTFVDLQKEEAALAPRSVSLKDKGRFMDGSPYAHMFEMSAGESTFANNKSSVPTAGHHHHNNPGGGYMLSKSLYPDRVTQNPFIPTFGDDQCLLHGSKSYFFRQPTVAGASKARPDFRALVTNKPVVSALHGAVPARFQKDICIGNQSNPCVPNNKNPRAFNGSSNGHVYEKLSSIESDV
row,SMILES,Response Recovered (%)
1,"O=C(Cn1ccc2c(c(-c3ccc(F)c(C(F)(F)F)c3)cn2-c2ccccc2)c1=O)N1CCC(F)C1 (stereo not drawn) [Example 230, 3-(4-fluoro-3-(trifluoromethyl)phenyl)-5-(2-(3-fluoropyrrolidin-1-yl)-2-oxoethyl)-1-phenyl-1H-pyrrolo[3,2-c]pyridin-4(5H)-one]",109
2,"O=C(Cn1ccc2c(c(-c3ccc(F)c(C(F)(F)F)c3)cn2C2CC2)c1=O)N1CCC(F)C1 (stereo not drawn) [Example 231, 1-cyclopropyl-3-(4-fluoro-3-(trifluoromethyl)phenyl)-5-(2-(3-fluoropyrrolidin-1-yl)-2-oxoethyl)-1H-pyrrolo[3,2-c]pyridin-4(5H)-one]",90
3,"O=C(Cn1ccc2c(c(-c3ccc(F)c(Cl)c3)cn2C2CC2)c1=O)N1CCC(F)C1 (stereo not drawn) [Example 232, 3-(3-chloro-4-fluorophenyl)-1-cyclopropyl-5-(2-(3-fluoropyrrolidin-1-yl)-2-oxoethyl)-1H-pyrrolo[3,2-c]pyridin-4(5H)-one]",66
4,"O=C(Cn1ccc2c(c(-c3ccc(Cl)c(Cl)c3)cn2C2CC2)c1=O)N1CCC(F)C1 (stereo not drawn) [Example 233, 1-cyclopropyl-3-(3,4-dichlorophenyl)-5-(2-(3-fluoropyrrolidin-1-yl)-2-oxoethyl)-1H-pyrrolo[3,2-c]pyridin-4(5H)-one]",85
5,Cn1cc(-n2cc(-c3ccc(F)c(C(F)(F)F)c3)c3c(=O)n(CC(=O)N4CCC(F)C4)ccc32)cn1 (stereo not drawn) [Example 234],80
6,"Cn1cc(-n2cc(-c3ccc(F)c(Cl)c3)c3c(=O)n(CC(=O)N4CCC(F)C4)ccc32)cn1 (stereo not drawn) [Example 235, 3-(3-chloro-4-fluorophenyl)-5-(2-(3-fluoropyrrolidin-1-yl)-2-oxoethyl)-1-(1-methyl-1H-pyrazol-4-yl)-1H-pyrrolo[3,2-c]pyridin-4(5H)-one]",40
7,"Cn1cc(-n2cc(-c3ccc(F)c(C(F)(F)F)c3)c3c(=O)n(CC(=O)N4CC(C)(F)C4)ccc32)cn1 [Example 236, 3-(4-fluoro-3-(trifluoromethyl)phenyl)-5-(2-(3-fluoro-3-methylazetidin-1-yl)-2-oxoethyl)-1-(1-methyl-1H-pyrazol-4-yl)-1H-pyrrolo[3,2-c]pyridin-4(5H)-one]",140
8,"CCC1(F)CN(C(=O)Cn2ccc3c(c(-c4ccc(F)c(Cl)c4)cn3C3CC3)c2=O)C1 [Example 237, 3-(3-chloro-4-fluorophenyl)-1-cyclopropyl-5-(2-(3-ethyl-3-fluoroazetidin-1-yl)-2-oxoethyl)-1H-pyrrolo[3,2-c]pyridin-4(5H)-one]",79
9,"COCn1cc(-c2ccc(F)c(C(F)(F)F)c2)c2c(=O)n(CC(=O)N3CCC(F)C3)ccc21 (stereo not drawn) [Example 238, 3-(4-fluoro-3-(trifluoromethyl)phenyl)-5-(2-(3-fluoropyrrolidin-1-yl)-2-oxoethyl)-1-(methoxymethyl)-1H-pyrrolo[3,2-c]pyridin-4(5H)-one]",65
10,"CCn1cc(-c2ccc(F)c(C(F)(F)F)c2)c2c(=O)n(CC(=O)N3CCC(F)C3)ccc21 (stereo not drawn) [Example 239, 1-ethyl-3-(4-fluoro-3-(trifluoromethyl)phenyl)-5-(2-(3-fluoropyrrolidin-1-yl)-2-oxoethyl)-1H-pyrrolo[3,2-c]pyridin-4(5H)-one]",86
11,CN(C)CCn1cc(-c2ccc(F)c(C(F)(F)F)c2)c2c(=O)n(CC(=O)N3CCC(F)C3)ccc21 (stereo not drawn) [Example 240],29
12,"CCOCn1cc(-c2ccc(F)c(C(F)(F)F)c2)c2c(=O)n(CC(=O)N3CCC(F)C3)ccc21 (stereo not drawn) [Example 241, 1-(ethoxymethyl)-3-(4-fluoro-3-(trifluoromethyl)phenyl)-5-(2-(3-fluoropyrrolidin-1-yl)-2-oxoethyl)-1H-pyrrolo[3,2-c]pyridin-4(5H)-one]",61
13,"COCn1cc(-c2ccc(F)c(C(F)(F)F)c2)c2c(=O)n(CC(=O)N3CC(F)C(F)C3)ccc21 (stereo not drawn) [Example 242, 5-(2-(3,4-difluoropyrrolidin-1-yl)-2-oxoethyl)-3-(4-fluoro-3-(trifluoromethyl)phenyl)-1-(methoxymethyl)-1H-pyrrolo[3,2-c]pyridin-4(5H)-one]",110
14,"O=C(Cn1ccc2c(c(-c3ccc(F)c(C(F)(F)F)c3)cn2-c2ncccn2)c1=O)N1CCC(F)C1 (stereo not drawn) [Example 243, 3-(4-fluoro-3-(trifluoromethyl)phenyl)-5-(2-(3-fluoropyrrolidin-1-yl)-2-oxoethyl)-1-(pyrimidin-2-yl)-1H-pyrrolo[3,2-c]pyridin-4(5H)-one]",96
15,"O=C(Cn1ccc2c(c(-c3ccc(F)c(C(F)(F)F)c3)cn2-c2ccncn2)c1=O)N1CCC(F)C1 (stereo not drawn) [Example 244, 3-(4-fluoro-3-(trifluoromethyl)phenyl)-5-(2-(3-fluoropyrrolidin-1-yl)-2-oxoethyl)-1-(pyrimidin-4-yl)-1H-pyrrolo[3,2-c]pyridin-4(5H)-one]",110
16,"CN(C)CCn1cc(-c2ccc(F)c(Cl)c2)c2c(=O)n(CC(=O)N3CCC(F)C3)ccc21 (stereo not drawn) [Example 245, 3-(3-chloro-4-fluorophenyl)-1-(2-(dimethylamino)ethyl)-5-(2-(3-fluoropyrrolidin-1-yl)-2-oxoethyl)-1H-pyrrolo[3,2-c]pyridin-4(5H)-one]",14
17,"COCn1cc(-c2ccc(F)c(Cl)c2)c2c(=O)n(CC(=O)N3CCC(F)C3)ccc21 (stereo not drawn) [Example 246, 3-(3-chloro-4-fluorophenyl)-5-(2-(3-fluoropyrrolidin-1-yl)-2-oxoethyl)-1-(methoxymethyl)-1H-pyrrolo[3,2-c]pyridin-4(5H)-one]",34
18,"Cn1cc(-c2ccc(F)c(Cl)c2)c2c(=O)n(CC(=O)N3CCC(F)C3)ccc21 (stereo not drawn) [Example 247, 3-(3-chloro-4-fluorophenyl)-5-(2-(3-fluoropyrrolidin-1-yl)-2-oxoethyl)-1-methyl-1H-pyrrolo[3,2-c]pyridin-4(5H)-one]",51
19,O=C(Cn1ccc2c(c(-c3ccc(F)c(Cl)c3)cn2-c2ccncn2)c1=O)N1CCC(F)C1 (stereo not drawn) [Example 248],59
20,"COCn1cc(-c2ccc(Cl)c(Cl)c2)c2c(=O)n(CC(=O)N3CCC(F)C3)ccc21 (stereo not drawn) [Example 249, 3-(3,4-dichlorophenyl)-5-(2-(3-fluoropyrrolidin-1-yl)-2-oxoethyl)-1-(methoxymethyl)-1H-pyrrolo[3,2-c]pyridin-4(5H)-one]",70
21,"Cn1cc(-c2ccc(Cl)c(Cl)c2)c2c(=O)n(CC(=O)N3CCC(F)C3)ccc21 (stereo not drawn) [Example 250, 3-(3,4-dichlorophenyl)-5-(2-(3-fluoropyrrolidin-1-yl)-2-oxoethyl)-1-methyl-1H-pyrrolo[3,2-c]pyridin-4(5H)-one]",62
22,Cn1cc(-c2ccc(F)c(C(F)(F)F)c2)c2c(=O)n(CC(=O)N3CCC(F)C3)ccc21 (stereo not drawn) [Example 251],61
23,"O=C(Cn1ccc2c(c(-c3ccc(F)c(C(F)(F)F)c3)cn2CCF)c1=O)N1CCC(F)C1 (stereo not drawn) [Example 252, 3-(4-fluoro-3-(trifluoromethyl)phenyl)-1-(2-fluoroethyl)-5-(2-(3-fluoropyrrolidin-1-yl)-2-oxoethyl)-1H-pyrrolo[3,2-c]pyridin-4(5H)-one]",96
24,"O=C(Cn1ccc2c(c(-c3ccc(F)c(Cl)c3)cn2CCF)c1=O)N1CCC(F)C1 (stereo not drawn) [Example 253, 3-(3-chloro-4-fluorophenyl)-1-(2-fluoroethyl)-5-(2-(3-fluorpyrrolidin-1-yl)-2-oxoethyl)-1H-pyrrolo[3,2-c]pyridin-4(5H)-one]",66
25,"COCn1cc(-c2ccc(F)c(Cl)c2)c2c(=O)n(CC(=O)N3CC(C)(F)C3)ccc21 [Example 254, 3-(3-chloro-4-fluorophenyl)-5-(2-(3-fluoro-3-methylazetidin-1-yl)-2-oxoethyl)-1-(methoxymethyl)-1,5-dihydro-4H-pyrrolo[3,2-c]pyridin-4-one]",140
26,"NC(=O)Cn1ccc2[nH]cc(-c3ccc(F)c(Cl)c3)c2c1=O [Example 255, 2-(3-(3-chloro-4-fluorophenyl)-4-oxo-1H-pyrrolo[3,2-c]pyridin-5(4H)-yl)acetamide]",−1
27,"O=C(Cn1ccc2c(c(-c3ccc(F)c(C(F)(F)F)c3)cn2CCO)c1=O)N1CCC(F)C1 (stereo not drawn) [Example 256, 3-(4-fluoro-3-(trifluoromethyl)phenyl)-5-(2-(3-fluoropyrrolidin-1-yl)-2-oxoethyl)-1-(2-hydroxyethyl)-1H-pyrrolo[3,2-c]pyridin-4(5H)-one]",54
28,"CC(C)(O)Cn1cc(-c2ccc(F)c(C(F)(F)F)c2)c2c(=O)n(CC(=O)N3CCC(F)C3)ccc21 (stereo not drawn) [Example 257, 3-(4-fluoro-3-(trifluoromethyl)phenyl)-5-(2-(3-fluoropyrrolidin-1-yl)-2-oxoethyl)-1-(2-hydroxy-2-methylpropyl)-1H-pyrrolo[3,2-c]pyridin-4(5H)-one]",20
29,"CC(C)(O)Cn1cc(-c2ccc(F)c(C(F)(F)F)c2)c2c(=O)n(CC(=O)N3CC(F)C(F)C3)ccc21 (stereo not drawn) [Example 258, 5-(2-(3,4-difluoropyrrolidin-1-yl)-2-oxoethyl)-3-(4-fluoro-3-(trifluoromethyl)phenyl)-1-(2-hydroxy-2-methylpropyl)-1H-pyrrolo[3,2-c]pyridin-4(5H)-one]",13
30,"CC(C)(O)Cn1cc(-c2ccc(F)c(Cl)c2)c2c(=O)n(CC(=O)N3CCC(F)C3)ccc21 (stereo not drawn) [Example 259, 3-(3-chloro-4-fluorophenyl)-5-(2-(3-fluoropyrrolidin-1-yl)-2-oxoethyl)-1-(2-hydroxy-2-methylpropyl)-1H-pyrrolo[3,2-c]pyridin-4(5H)-one]",35
